# Results reported in US20160061849A1, “LIPIDOMIC BIOMARKERS” (UNITHER VIROLOGY, LLC, priority 2014, published 2016).
# Columns and labels:
# Huh7.5 cells = assay: "Total lipid" fatty acid profiling (GCMS) of hepatoma cells treated with iminosugars; assay type: cell-based, human; settings: uninfected state, antiviral concentrations, 4 days
# Procedure: Methods for cell culture of replication-competent HCV in human hepatoma cells were essentially as described (Pollock, Nichita et al. 2010). Huh7.5 cells (Apath, LLC) were grown in DMEM supplemented with 100 U/ml penicillin, 100 μg/ml streptomycin, 2 mM L-glutamine, 1×MEM, and 10% FBS. All incubations were at 37° C./5% CO2. The effect of iminosugar treatment on cellular lipid profiles was determined for both uninfected and HCVcc-infected cells. In order to infect cells with HCV strain Jc1 (genotype 2a), Huh7.5 cells were incubated for 1 h in the presence of the virus at a multiplicity of infection (MOI)=0.02 using a viral stock of known titer. Cells were passaged for approximately 2 weeks to allow the infection to reach close to 100% of cells as determined by HCV core protein immunofluorescence, in order to avoid dilution of ‘infected’ lipidomic signatures by uninfected cells in partially infected cultures. Both HCV-infected and uninfected cells were then incubated in the presence or absence of iminosugars for 4 days, at which point they were harvested using trypsin/EDTA, washed 3 times in cold PBS, counted using trypan blue staining, and final cell pellets were resuspended in methanol:acetone (vol 1:1) prior to lipid profiling, A small volume of each sample was used for total protein estimation using the Bradford protein assay (Bio-Rad). […]
# obese mice = settings: cited from earlier work
# ER alpha glucosidases = settings: cited from earlier work
# PI3 kinase = settings: cited from earlier work
compound,measurement,setting,value
"OC[C@@H]1[C@@H](O)[C@H](O)[C@@H](O)CN1CCCCCOCC12CC3CC(CC(C3)C1)C2 [AMP-DNJ, N-(5-adamantane-1-yl-methoxy-pentyl)-deoxynojirimycin]",Mead acid component of the global fatty acid composition,Huh7.5 cells,almost doubled
same,fatty acid synthase activity,obese mice,decreases fatty acid synthase activity
same,hepatic insulin sensitivity,obese mice,improves hepatic insulin sensitivity
same,hepatic steatosis,obese mice,abolishes hepatic steatosis
"CCCCN1C[C@H](O)[C@@H](O)[C@@H](O)[C@H]1CO [NB-DGJ, N—(N-butyl) deoxygalactojirimycin]",inhibitory activity towards ER alpha glucosidases,ER alpha glucosidases,no inhibitory activity
"CCCCN1C[C@H](O)[C@@H](O)[C@H](O)[C@H]1CO [NB-DNJ, N-butyl-deoxynojirimycin]",inhibitory activity towards ER alpha glucosidases,ER alpha glucosidases,also inhibits glucosidase
CCCCC/C=C\C/C=C\C/C=C\C/C=C\CCCC(=O)O [arachidonic acid],activation of PI3 kinase by insulin,PI3 kinase,blocks the activation
